# Source: patent US9499550B2 (BRISTOL-MYERS SQUIBB COMPANY, priority 2012, dated 2016)
# Like-named read-outs stand apart in the source and are kept apart here.
# Tests used:
# [1] = test system: HCV genotype 1a (H77 strain) replicon in HUH-7 cells; test: HCV replicon luciferase reporter assay, genotype 1a; assay type: cell-based; conditions: 3 days incubation
# In short: (§1)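 Replicon inhibition for both genotypes was measured as Renilla luciferase signal (EnduRen, 7.5 μM final, 2 h) after 3-day, 37° C exposure of replicon-bearing HUH-7 cells in 4% FCS DMEM, 0.5% DMSO. The 1b construct carries S1179I; the 1a H77 construct carries P1496L and S2204I. Twenty-point, 3-fold dilutions were fitted four-parametrically for EC50, and CC50 was taken from multiplexed Cell Titer-Blue.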
# [2] = test system: HCV genotype 1b (Con1) replicon in HUH-7 cells; test: HCV replicon luciferase reporter assay, genotype 1b; assay type: cell-based; conditions: 3 days incubation
# In short: as §1
# [3] = Hepatitis C virus, Huh-7, 72 h, HCV genotype 1a replicon luciferase assay, range class, read-out: LE_1a (EC50, range)
# [4] = Hepatitis C virus, Huh-7, 72 h, HCV genotype 1b replicon luciferase assay, range class, read-out: LE_1b (EC50, range)
# [5] = Hepatitis C virus, GETYPE1A, Huh-7, 72 h, HCV genotype 1a replicon luciferase, read-out: LE_1a (EC50, range)
# [6] = Hepatitis C virus, GETYPE1B, Huh-7, 72 h, HCV genotype 1b replicon luciferase, read-out: LE_1b (EC50, range)
# [7] = Hepatitis C virus, Huh-7, 72 h, HCV genotype 1a replicon luciferase, read-out: LE_1a (EC50, range)
# [8] = Hepatitis C virus, Huh-7, 72 h, HCV genotype 1b replicon luciferase, read-out: LE_1b (EC50, range)
smiles,measurement,setting,value
"COc1ccc2c(O[C@@H]3C[C@H]4C(=O)N[C@]5(C(=O)NS(=O)(=O)C6CC6)C[C@H]5/C=C\CC[C@H](C)C[C@@H](C)[C@H](NC(=O)O[C@H](C)C(F)(F)F)C(=O)N4C3)nc(-c3ccc(OC(C)C)c(F)c3)cc2c1 [Compound 3073, (R)-1,1,1-trifluoropropan-2-yl ((2R,6S,7R,9S,13aS,14aR,16aS,Z)-14a-((cyclopropylsulfonyl)carbamoyl)-2-((3-(3-fluoro-4-isopropoxyphenyl)-6-methoxyisoquinolin-1-yl)oxy)-7,9-dimethyl-5,16-dioxo-1,2,3,5,6,7,8,9,10,11,13a,14,14a,15,16,16a-hexadecahydrocyclopropa[e]pyrrolo[1,2-a][1,4]diazacyclopentadecin-6-yl)carbamate]",EC50,[1]; [3],4.82 to 103 nM
same,EC50,[2]; [4],< 5.46 nM
COc1cc(O[C@@H]2C[C@H]3C(=O)N[C@]4(C(=O)NS(=O)(=O)C5(C)CC5)C[C@H]4/C=C\CC[C@@H](C)C[C@@H](C)[C@H](NC(=O)OC(C)(C)C(F)(F)F)C(=O)N3C2)c2cc(F)c(OC)cc2n1 [Compound 1203],EC50,[1]; [5],1.01 to 5 nM
same,EC50,[2]; [6],0.1 to 0.5 nM
[2H]C([2H])([2H])Oc1cc2ccnc(O[C@@H]3C[C@H]4C(=O)N[C@]5(C(=O)NS(=O)(=O)C6(C)CC6)C[C@H]5/C=C\CC[C@@H](C)C[C@@H](CC)[C@H](NC(=O)OC(C([2H])([2H])[2H])(C([2H])([2H])[2H])C(F)(F)F)C(=O)N4C3)c2cc1F [Compound 5505],EC50,[1]; [7],5.01 to 35 nM
same,EC50,[2]; [8],1.01 to 5 nM
"CCOc1ccc2c(O[C@@H]3C[C@H]4C(=O)N[C@]5(C(=O)NS(=O)(=O)C6(C)CC6)C[C@H]5/C=C\CC[C@@H](C)C[C@@H](CC)[C@H](NC(=O)OC(C)(C)C(F)(F)F)C(=O)N4C3)nccc2c1 [Compound 5369, 1,1,1-trifluoro-2-methylpropan-2-yl((2R,6S,7R,9R,13aS,14aR,16aS,Z)-2-((6-ethoxyisoquinolin-1-yl)oxy)-7-ethyl-9-methyl-14a-(((1-methylcyclopropyl)sulfonyl)carbamoyl)-5,16-dioxo-1,2,3,5,6,7,8,9,10,11,13a,14,14a,15,16,16a-hexadecahydrocyclopropa[e]pyrrolo[1,2-a][1,4]diazacyclopentadecin-6-yl)carbamate]",EC50,[1]; [7],1.01 to 5 nM
same,EC50,[2]; [8],1.01 to 5 nM
CCOc1cnc(O[C@@H]2C[C@H]3C(=O)N[C@]4(C(=O)NS(=O)(=O)C5(CF)CC5)C[C@H]4/C=C\CC[C@@H](C)C[C@@H](C)[C@H](NC(=O)OC(C)(C)C(F)(F)F)C(=O)N3C2)c2ccc(OC)cc12 [Compound 4104],EC50,[1]; [5],< 5.46 nM
same,EC50,[2]; [6],< 5.46 nM
"CC(C)Oc1ccc2c(O[C@@H]3C[C@H]4C(=O)N[C@]5(C(=O)NS(=O)(=O)C6(C)CC6)C[C@H]5/C=C\CC[C@@H](C)C[C@@H](C)[C@H](NC(=O)O[C@@H]5C[C@@H]6C[C@@H]6C5)C(=O)N4C3)nccc2c1 [Compound 5163, (1R,3r,5S)-bicyclo[3.1.0]hexan-3-yl((2R,6S,7R,9R,13aS,14aR,16aS,Z)-2-((6-isopropoxyisoquinolin-1-yl)oxy)-7,9-dimethyl-14a-(((1-methylcyclopropyl)sulfonyl)carbamoyl)-5,16-dioxo-1,2,3,5,6,7,8,9,10,11,13a,14,14a,15,16,16a-hexadecahydrocyclopropa[e]pyrrolo[1,2-a][1,4]diazacyclopentadecin-6-yl)carbamate]",EC50,[1]; [7],< 5.46 nM
same,EC50,[2]; [8],< 5.46 nM
"CC[C@@H]1C[C@@H](C)CC/C=C\[C@@H]2C[C@@]2(C(=O)NS(=O)(=O)C2(CF)CC2)NC(=O)[C@@H]2C[C@@H](Oc3nccc4c5c(ccc34)N(C)CCO5)CN2C(=O)[C@H]1NC(=O)OC(C)(C)C(F)(F)F [Compound 5319, 1,1,1-trifluoro-2-methylpropan-2-yl((2R,6S,7R,9S,13aS,14aR,16aS,Z)-7-ethyl-14a-(((1-(fluoromethyl)cyclopropyl)sulfonyl)carbamoyl)-9-methyl-2-((4-methyl-3,4-dihydro-2H-[1,4]oxazino[2,3-f]isoquinolin-7-yl)oxy)-5,16-dioxo-1,2,3,5,6,7,8,9,10,11,13a,14,14a,15,16,16a-hexadecahydrocyclopropa[e]pyrrolo[1,2-a][1,4]diazacyclopentadecin-6-yl)carbamate]",EC50,"[1]; HCV genotype 1a replicon luciferase, read-out: LE_1a (EC50)",33.6 nM
same,EC50,"[2]; HCV genotype 1b replicon luciferase, read-out: LE_1b (EC50)",14.2 nM
"C[C@H]1CC/C=C\[C@@H]2C[C@@]2(C(=O)NS(=O)(=O)C2CC2)NC(=O)[C@@H]2C[C@@H](Oc3nccc4c5c(ccc34)OC(F)(F)O5)CN2C(=O)[C@@H](NC(=O)OC(C)(C)C(F)(F)F)[C@H](C)C1 [Compound 5267, 1,1,1-trifluoro-2-methylpropan-2-yl((2R,6S,7R,9S,13aS,14aR,16aS,Z)-14a-((cyclopropylsulfonyl)carbamoyl)-2-((2,2-difluoro-[1,3]dioxolo[4,5-f]isoquinolin-6-yl)oxy)-7,9-dimethyl-5,16-dioxo-1,2,3,5,6,7,8,9,10,11,13a,14,14a,15,16,16a-hexadecahydrocyclopropa[e]pyrrolo[1,2-a][1,4]diazacyclopentadecin-6-yl)carbamate]",EC50,[1]; [7],4.82 to 103 nM
same,EC50,[2]; [8],4.82 to 103 nM
C[C@@H]1CC/C=C\[C@@H]2C[C@@]2(C(=O)NS(=O)(=O)C2CC2)NC(=O)[C@@H]2C[C@@H](Oc3nccc4ccccc34)CN2C(=O)[C@@H](NC(=O)OC(C)(C)C(F)(F)F)[C@H](C)C1 [Compound 4040],EC50,[1]; [5],< 5.46 nM
same,EC50,[2]; [6],< 5.46 nM
"COc1ccc2c(O[C@@H]3C[C@H]4C(=O)N[C@]5(C(=O)NS(=O)(=O)C6(C)CC6)C[C@H]5/C=C\CC[C@H](C)C[C@@H](C)[C@H](NC(=O)NC(C)(C)C)C(=O)N4C3)nc(-c3ccc(OC(C)C)nc3)cc2c1 [Compound 5230, (2R,6S,7R,9S,13aS,14aR,16aS,Z)-6-(3-(tert-butyl)ureido)-2-((3-(6-isopropoxypyridin-3-yl)-6-methoxyisoquinolin-1-yl)oxy)-7,9-dimethyl-N-((1-methylcyclopropyl)sulfonyl)-5,16-dioxo-1,2,3,5,6,7,8,9,10,11,13a,14,14a,15,16,16a-hexadecahydrocyclopropa[e]pyrrolo[1,2-a][1,4]diazacyclopentadecine-14a-carboxamide]",EC50,[1]; [7],4.82 to 103 nM
same,EC50,[2]; [8],< 5.46 nM
"COc1ccc2c(O[C@@H]3C[C@H]4C(=O)N[C@]5(C(=O)NS(=O)(=O)C6(C)CC6)C[C@H]5/C=C\CC[C@H](C)C[C@@H](C)[C@H](NC(=O)OC(C)(C)C)C(=O)N4C3)nc(OC)cc2c1 [Compound 1130, tert-butyl ((2R,6S,7R,9S,13aS,14aR,16aS,Z)-2-((3,6-dimethoxyisoquinolin-1-yl)oxy)-7,9-dimethyl-14a-(((1-methylcyclopropyl)sulfonyl)carbamoyl)-5,16-dioxo-1,2,3,5,6,7,8,9,10,11,13a,14,14a,15,16,16a-hexadecahydrocyclopropa[e]pyrrolo[1,2-a][1,4]diazacyclopentadecin-6-yl)carbamate]",EC50,[1]; [3],< 5.46 nM
same,EC50,[2]; [4],< 5.46 nM
"C[C@@H]1CC/C=C\[C@@H]2C[C@@]2(C(=O)NS(=O)(=O)C2(C)CC2)NC(=O)[C@@H]2C[C@@H](Oc3nc(OCC(F)F)cc4c(Cl)cccc34)CN2C(=O)[C@@H](NC(=O)OC(C)(C)C(C)(F)F)[C@H](C)C1 [Compound 1110, 3,3-difluoro-2-methylbutan-2-yl((2R,6S,7R,9R,13aS,14aR,16aS,Z)-2-((5-chloro-3-(2,2-difluoroethoxyl)isoquinolin-1-yl)oxy)-7,9-dimethyl-14a-(((1-methylcyclopropyl)sulfonyl)carbamoyl)-5,16-dioxo-1,2,3,5,6,7,8,9,10,11,13a,14,14a,15,16,16a-hexadecahydrocyclopropa[e]pyrrolo[1,2-a][1,4]diazacyclopentadecin-6-yl)carbamate]",EC50,[1]; [3],< 5.46 nM
same,EC50,[2]; [4],< 5.46 nM
"COc1cc(F)cc2c(O[C@@H]3C[C@H]4C(=O)N[C@]5(C(=O)NS(=O)(=O)C6(C)CC6)C[C@H]5/C=C\CC[C@@H](C)C[C@@H](C)[C@H](NC(=O)OCC5(C)CC5)C(=O)N4C3)nccc12 [Compound 3162, (1-methylcyclopropyl)methyl ((2R,6S,7R,9R,13aS,14aR,16aS,Z)-2-((7-fluoro-5-methoxyisoquinolin-1-yl)oxy)-7,9-dimethyl-14a-(((1-methylcyclopropyl)sulfonyl)carbamoyl)-5,16-dioxo-1,2,3,5,6,7,8,9,10,11,13a,14,14a,15,16,16a-hexadecahydrocyclopropa[e]pyrrolo[1,2-a][1,4]diazacyclopentadecin-6-yl)carbamate]",EC50,[1]; [3],< 5.46 nM
same,EC50,[2]; [4],< 5.46 nM
"C[C@@H]1CC/C=C\[C@@H]2C[C@@]2(C(=O)NS(=O)(=O)C2CC2)NC(=O)[C@@H]2C[C@@H](Oc3nccc4c5c(ccc34)OC(F)(F)O5)CN2C(=O)[C@@H](NC(=O)OC(C)(C)C(F)(F)F)[C@H](C)C1 [Compound 5268, 1,1,1-trifluoro-2-methylpropan-2-yl((2R,6S,7R,9R,13aS,14aR,16aS,Z)-14a-((cyclopropylsulfonyl)carbamoyl)-2-((2,2-difluoro-[1,3]dioxolo[4,5-f]isoquinolin-6-yl)oxy)-7,9-dimethyl-5,16-dioxo-1,2,3,5,6,7,8,9,10,11,13a,14,14a,15,16,16a-hexadecahydrocyclopropa[e]pyrrolo[1,2-a][1,4]diazacyclopentadecin-6-yl)carbamate]",EC50,[1]; [7],< 5.46 nM
same,EC50,[2]; [8],< 5.46 nM
